# Reference: ChEMBL document CHEMBL1201862, “PubChem BioAssay data set” (2004)
# Active and inactive are the calls of the source.
# What was measured:
# H9c2 = test: cells; assay type: functional, cell-based; settings: Rattus norvegicus, H9c2, Myocardium;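 note: confirmatory concentration-response retest of ultra-high-throughput screening hits for modulation of myocardial damage; cell death induced by hydrogen peroxide oxidative stress; compound pretreatment for 60 min then peroxide exposure for 2 h; potency is for protecting the cells against peroxide damage rather than for killing them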
# Nonstructural protein 1 = Nonstructural protein 1 (Influenza A virus, UniProt Q194T2); assay type: functional, Influenza A virus (A/California/07/2009(H1N1))
# Nonstructural protein 1, sequence (Q194T2 whole entry): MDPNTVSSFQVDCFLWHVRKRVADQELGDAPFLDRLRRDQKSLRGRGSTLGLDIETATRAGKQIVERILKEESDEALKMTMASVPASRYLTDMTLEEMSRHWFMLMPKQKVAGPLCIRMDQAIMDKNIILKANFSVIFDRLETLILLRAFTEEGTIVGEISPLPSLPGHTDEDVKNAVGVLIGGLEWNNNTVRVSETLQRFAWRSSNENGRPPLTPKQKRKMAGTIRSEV
# [1] = target: T1, Corticotropin-releasing factor receptor 2/Corticotropin-releasing factor-binding protein (Homo sapiens, UniProt P24387+Q13324); test: activators of CRF receptor 2 with binding protein – uHTS hits, confirmation (AID 602473); assay type: functional; settings: read-out: EC50_Mean
# T1 sequence (Q13324 whole entry): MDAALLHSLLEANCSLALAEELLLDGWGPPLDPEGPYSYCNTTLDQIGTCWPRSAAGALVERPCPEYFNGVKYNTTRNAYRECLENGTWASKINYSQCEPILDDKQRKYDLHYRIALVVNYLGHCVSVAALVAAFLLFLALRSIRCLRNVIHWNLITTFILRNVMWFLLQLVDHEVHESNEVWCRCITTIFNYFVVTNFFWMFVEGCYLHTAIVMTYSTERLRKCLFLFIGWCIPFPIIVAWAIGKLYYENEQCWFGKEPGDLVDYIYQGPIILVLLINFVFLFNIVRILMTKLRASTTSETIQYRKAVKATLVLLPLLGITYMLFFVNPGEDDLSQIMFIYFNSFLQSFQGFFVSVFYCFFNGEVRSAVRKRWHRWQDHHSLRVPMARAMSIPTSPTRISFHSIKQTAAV
# T1 sequence (P24387 whole entry): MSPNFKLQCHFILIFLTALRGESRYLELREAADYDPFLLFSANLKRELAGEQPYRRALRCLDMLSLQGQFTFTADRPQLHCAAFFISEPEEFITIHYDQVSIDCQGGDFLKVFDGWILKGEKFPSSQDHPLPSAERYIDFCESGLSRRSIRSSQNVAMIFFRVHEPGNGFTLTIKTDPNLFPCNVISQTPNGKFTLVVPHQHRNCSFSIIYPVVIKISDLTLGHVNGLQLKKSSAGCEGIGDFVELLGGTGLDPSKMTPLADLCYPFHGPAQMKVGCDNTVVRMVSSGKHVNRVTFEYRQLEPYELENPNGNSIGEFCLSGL
# Genome polyprotein = Genome polyprotein (dengue virus type 2, UniProt P29990); test: Dengue-2 NS5 methyltransferase inhibitors, primary screen, biochemical, confirmation dose response (AID 588689); assay type: functional
# Genome polyprotein, sequence (P29990 2492-3391 limits assumed): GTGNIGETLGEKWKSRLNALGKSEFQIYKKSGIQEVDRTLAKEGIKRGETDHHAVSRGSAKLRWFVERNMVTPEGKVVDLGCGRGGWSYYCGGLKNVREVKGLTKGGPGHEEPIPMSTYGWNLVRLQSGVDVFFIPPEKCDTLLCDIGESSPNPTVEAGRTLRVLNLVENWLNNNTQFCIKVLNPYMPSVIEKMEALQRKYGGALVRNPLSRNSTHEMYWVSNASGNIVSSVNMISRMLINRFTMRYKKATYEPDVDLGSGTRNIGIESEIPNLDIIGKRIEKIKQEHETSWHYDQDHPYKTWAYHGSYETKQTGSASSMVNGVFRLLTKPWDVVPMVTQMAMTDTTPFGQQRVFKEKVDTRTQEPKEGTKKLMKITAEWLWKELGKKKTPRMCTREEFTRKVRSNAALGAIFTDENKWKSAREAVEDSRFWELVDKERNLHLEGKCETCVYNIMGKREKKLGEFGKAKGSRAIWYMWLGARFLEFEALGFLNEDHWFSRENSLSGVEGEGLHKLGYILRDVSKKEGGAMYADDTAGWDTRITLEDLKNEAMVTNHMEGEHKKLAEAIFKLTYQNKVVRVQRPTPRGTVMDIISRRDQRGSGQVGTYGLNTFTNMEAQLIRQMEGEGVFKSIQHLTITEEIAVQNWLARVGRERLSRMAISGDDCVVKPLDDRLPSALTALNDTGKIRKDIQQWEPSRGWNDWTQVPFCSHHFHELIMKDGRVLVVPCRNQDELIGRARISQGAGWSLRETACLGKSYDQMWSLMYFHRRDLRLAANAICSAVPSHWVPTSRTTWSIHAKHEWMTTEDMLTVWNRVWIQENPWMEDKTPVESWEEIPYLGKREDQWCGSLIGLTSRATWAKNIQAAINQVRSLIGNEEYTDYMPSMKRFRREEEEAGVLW
# [2] = target: T2, Calpain-2 catalytic subunit (Sus scrofa, UniProt P43367); test: pig calpain II inhibitor potency, dose response, biochemical, fluorogenic peptide substrate (AID 1420); assay type: functional
# T2 sequence (P43367 whole entry): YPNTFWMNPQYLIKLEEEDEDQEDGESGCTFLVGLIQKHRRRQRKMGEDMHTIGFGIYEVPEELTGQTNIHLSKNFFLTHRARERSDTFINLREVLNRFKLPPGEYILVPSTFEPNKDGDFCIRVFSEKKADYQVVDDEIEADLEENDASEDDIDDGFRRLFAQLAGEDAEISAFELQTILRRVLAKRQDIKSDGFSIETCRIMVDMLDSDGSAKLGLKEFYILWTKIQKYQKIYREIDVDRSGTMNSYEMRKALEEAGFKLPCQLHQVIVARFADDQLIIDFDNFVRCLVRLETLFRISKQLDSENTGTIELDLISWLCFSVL
# [3] = inhibitors of firefly luciferase expression or activity, dose response, H4 neuroglioma cells, luminescence (AID 1990); assay type: functional, cell-based
# [4] = target: T3, Zinc finger protein mex-5 (Caenorhabditis elegans, UniProt Q9XUB2); test: MEX-5/TCR-2 RNA interaction inhibitors, dose response, biochemical, C. elegans, fluorescence polarization (AID 1960)
# T3 sequence (Q9XUB2 whole entry): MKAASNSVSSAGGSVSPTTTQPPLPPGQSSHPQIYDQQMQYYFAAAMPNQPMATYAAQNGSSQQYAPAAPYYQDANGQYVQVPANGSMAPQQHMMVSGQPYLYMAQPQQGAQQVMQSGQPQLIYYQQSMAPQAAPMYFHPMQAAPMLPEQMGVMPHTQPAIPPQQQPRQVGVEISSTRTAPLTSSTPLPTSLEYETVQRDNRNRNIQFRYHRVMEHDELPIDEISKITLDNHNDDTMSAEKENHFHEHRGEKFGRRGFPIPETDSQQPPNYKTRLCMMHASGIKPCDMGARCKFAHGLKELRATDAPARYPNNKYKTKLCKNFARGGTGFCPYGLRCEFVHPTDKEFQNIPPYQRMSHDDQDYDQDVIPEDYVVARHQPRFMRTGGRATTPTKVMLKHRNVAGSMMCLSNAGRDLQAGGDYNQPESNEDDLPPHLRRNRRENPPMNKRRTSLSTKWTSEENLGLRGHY
# [5] = inhibitors of SNCA 5'UTR-driven reporter translation, confirmation, H4 neuroglioma cells, luminescence (AID 1988); assay type: functional, cell-based
# [6] = Luminescence Cell-Based Dose Response HTS to Identify Inhibitors of 5'UTR Stem-Loop Driven Prion Protein mRNA Translation in H4 Neuroglioblastoma Cells. [Related pubchem assays: 1827 (Project Summary), 1813 (Primary HTS)]; assay type: functional
# [7] = target: T4, RNA-binding protein pos-1 (Caenorhabditis elegans, UniProt G5EF15); test: inhibitors of POS-1/mex-3 RNA binding, dose response, biochemical, fluorescence polarization (AID 1964);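 note: purified POS-1 fused to maltose binding protein made in E. coli; potency of compounds blocking POS-1 binding to fluorescent RNA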
# T4 sequence (G5EF15 whole entry): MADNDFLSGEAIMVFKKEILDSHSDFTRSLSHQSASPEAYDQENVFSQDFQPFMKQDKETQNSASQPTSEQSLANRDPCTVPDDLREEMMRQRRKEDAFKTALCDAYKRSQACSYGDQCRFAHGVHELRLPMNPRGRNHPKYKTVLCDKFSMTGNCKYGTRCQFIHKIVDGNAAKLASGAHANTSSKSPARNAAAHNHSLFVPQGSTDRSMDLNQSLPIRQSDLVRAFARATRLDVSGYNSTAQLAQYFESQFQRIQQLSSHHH
# Vero = test: cells; assay type: functional; settings: Chlorocebus sabaeus
# [8] = microbe, parasite or virus in culture; assay type: functional; settings: Mycobacterium tuberculosis
# [9] = target: T5, High affinity choline transporter 1 (Homo sapiens, UniProt Q9GZV3); test: CHT inhibitors, dose response, cell-based, 5-point CRC, membrane potential dye (AID 504840); assay type: functional
# T5 sequence (Q9GZV3 whole entry): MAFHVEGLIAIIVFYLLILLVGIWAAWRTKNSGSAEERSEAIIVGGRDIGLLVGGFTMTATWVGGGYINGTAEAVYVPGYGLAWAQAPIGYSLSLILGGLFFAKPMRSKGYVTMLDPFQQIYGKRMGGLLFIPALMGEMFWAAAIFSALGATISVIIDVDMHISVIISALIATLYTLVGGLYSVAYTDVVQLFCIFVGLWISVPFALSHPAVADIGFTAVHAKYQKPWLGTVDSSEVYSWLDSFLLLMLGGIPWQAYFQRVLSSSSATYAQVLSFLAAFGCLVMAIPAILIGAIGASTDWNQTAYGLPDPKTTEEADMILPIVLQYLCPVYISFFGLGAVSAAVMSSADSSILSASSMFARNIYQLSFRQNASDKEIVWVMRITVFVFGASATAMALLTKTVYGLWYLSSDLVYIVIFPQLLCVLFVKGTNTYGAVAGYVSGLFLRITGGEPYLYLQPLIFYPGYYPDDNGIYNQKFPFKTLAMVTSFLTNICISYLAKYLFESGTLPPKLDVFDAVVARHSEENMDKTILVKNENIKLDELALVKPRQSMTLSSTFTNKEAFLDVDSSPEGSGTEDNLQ
# [10] = control 3'UTR Renilla luciferase suppression, dose response, counter-screen for Shn3 inhibitor project, cell-based, Clone20-Shn3RL, cherry-picked (AID 624133); assay type: functional
# [11] = Shn3 3'UTR reporter inhibitors, dose response, cell-based, Clone20 osteoblasts, firefly luciferase, cherry-picked (AID 624132); assay type: functional;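 note: firefly luciferase luminescence from reporter carrying the Shn3 3'UTR in osteoblasts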
# HEK293 = test: inhibitors of LMP1-driven NF-kB reporter, dose response, cell-based, HEK293, luciferase, cherry-pick (AID 588343); assay type: functional; settings: Homo sapiens
# Cytochrome P450 1A2 = target: T6, Cytochrome P450 1A2 (Homo sapiens, UniProt P05177);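 note: PubChem cytochrome P450 panel assay, CYP1A2 panel member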
# T6 sequence (P05177 whole entry): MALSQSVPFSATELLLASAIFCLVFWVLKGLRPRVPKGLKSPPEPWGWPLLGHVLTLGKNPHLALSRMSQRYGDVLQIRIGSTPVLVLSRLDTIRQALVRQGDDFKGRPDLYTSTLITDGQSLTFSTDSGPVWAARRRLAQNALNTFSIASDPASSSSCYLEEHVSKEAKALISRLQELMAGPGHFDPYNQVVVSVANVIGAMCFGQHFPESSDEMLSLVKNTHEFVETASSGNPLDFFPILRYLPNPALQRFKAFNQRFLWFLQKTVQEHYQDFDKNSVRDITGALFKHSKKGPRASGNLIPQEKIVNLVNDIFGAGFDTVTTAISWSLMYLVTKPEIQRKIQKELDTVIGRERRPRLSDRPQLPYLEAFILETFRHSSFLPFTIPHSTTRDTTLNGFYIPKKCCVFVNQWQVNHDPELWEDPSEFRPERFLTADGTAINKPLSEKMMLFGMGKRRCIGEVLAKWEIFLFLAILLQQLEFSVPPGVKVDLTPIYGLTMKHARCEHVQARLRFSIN
# Cytochrome P450 2C9 = Cytochrome P450 2C9 (Homo sapiens, UniProt P11712)
# Cytochrome P450 2C9, sequence (P11712 whole entry): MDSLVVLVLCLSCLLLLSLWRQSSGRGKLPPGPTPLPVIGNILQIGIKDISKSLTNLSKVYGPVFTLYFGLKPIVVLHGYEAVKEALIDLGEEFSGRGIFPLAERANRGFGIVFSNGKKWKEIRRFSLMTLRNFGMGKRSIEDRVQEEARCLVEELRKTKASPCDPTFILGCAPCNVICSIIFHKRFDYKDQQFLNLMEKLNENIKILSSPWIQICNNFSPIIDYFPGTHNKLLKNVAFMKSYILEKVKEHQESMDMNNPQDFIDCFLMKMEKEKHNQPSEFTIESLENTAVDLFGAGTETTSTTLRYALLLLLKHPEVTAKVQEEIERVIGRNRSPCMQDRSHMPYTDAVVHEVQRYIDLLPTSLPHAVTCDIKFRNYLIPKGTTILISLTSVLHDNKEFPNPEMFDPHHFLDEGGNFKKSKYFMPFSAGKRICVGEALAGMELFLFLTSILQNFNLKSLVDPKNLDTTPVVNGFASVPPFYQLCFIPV
# Cytochrome P450 2C19 = Cytochrome P450 2C19 (Homo sapiens, UniProt P33261); test: Cytochrome panel assay with activity outcomes. Panel member name: p450-cyp2c19 Compounds with AC50 equal or less than 10 uM are considered active; assay type: functional; settings: read-out: AC50
# Cytochrome P450 2C19, sequence (P33261 whole entry): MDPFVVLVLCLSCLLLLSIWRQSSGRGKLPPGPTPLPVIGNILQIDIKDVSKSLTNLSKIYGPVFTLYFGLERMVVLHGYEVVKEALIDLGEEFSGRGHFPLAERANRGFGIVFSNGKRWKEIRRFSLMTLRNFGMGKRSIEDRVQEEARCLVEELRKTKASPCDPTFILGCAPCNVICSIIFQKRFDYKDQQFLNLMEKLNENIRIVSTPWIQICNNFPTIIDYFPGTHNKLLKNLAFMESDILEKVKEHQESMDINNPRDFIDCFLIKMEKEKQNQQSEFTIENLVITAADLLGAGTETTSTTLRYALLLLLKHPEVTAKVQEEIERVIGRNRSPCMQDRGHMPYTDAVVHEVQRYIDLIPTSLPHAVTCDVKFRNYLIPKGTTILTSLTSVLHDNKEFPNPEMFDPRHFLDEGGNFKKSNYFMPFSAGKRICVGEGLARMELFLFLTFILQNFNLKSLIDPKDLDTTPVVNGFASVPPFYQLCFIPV
# [12] = P. falciparum Dd2 growth inhibitors, dose response, SYBR Green, cherry-picked samples (AID 1159567); assay type: functional, cell-based
smiles,measurement,setting,value
O=C1c2ccccc2NC(c2ccc([N+](=O)[O-])cc2)N1O (configuration not stated),IC50,H9c2,10.4 µM (active)
CCOC(=O)CNC(=O)CSc1nc2cc(Br)c(C)nc2[nH]1,IC50,H9c2,24 µM (active)
CCn1c(SCC(=O)Nc2ccccc2N2CCCCC2)nc2c1c(=O)n(C)c(=O)n2C,IC50,H9c2,> 79 µM (inactive)
COc1ccc(-c2nn3c(-c4ccccc4)nnc3s2)cc1OC,IC50,H9c2,> 79 µM (inactive)
CCCCNc1c([N+](=O)[O-])cc(C)cc1[N+](=O)[O-],IC50,Nonstructural protein 1,27.1 µM (active)
CCCS(=O)(=O)c1nc(S(=O)(=O)c2ccc(C)cc2)c(N2CCCC2)s1,EC50,[1],> 53 µM (inactive)
C=CCN1C(=O)/C(=C/c2cccs2)C(=O)NC1=S,IC50,Genome polyprotein,43.8 µM (active)
O=C(Nc1ccc2ccccc2c1)C(=O)C1C(=O)Nc2ccccc21 (configuration not stated),IC50,[2],< 0.4 µM (not active)
CC(C)(C)OC(=O)N1CC=C2C(C#N)=C(N)C(C#N)(C#N)[C@H](c3cccnc3)[C@H]2C1,EC50,[3],> 120 µM (not active)
same,IC50,Genome polyprotein,> 100 µM (active)
same,EC50,[4],54 µM (active)
same,EC50,[5],60.3 µM (active)
same,EC50,[6],> 120 µM (not active)
same,EC50,[7],61.7 µM (active)
Cc1nn2c(NCCCN(C)C)c3c(nc2c1-c1ccccc1)CCCC3,CC50,Vero,> 25 µM (active)
CN(C)c1ccc(N=Nc2ccccc2C(=O)OCC(=O)N(C)c2ccccc2)cc1,IC50,Nonstructural protein 1,21.2 µM (active)
CNc1nc(NN)nc(Nc2ccccc2)n1,IC50,Nonstructural protein 1,15 µM (active)
COc1ccc(S(=O)(=O)N2CCOCC2)cc1N=Nc1sc(N)nc1-c1ccccc1,EC50,[3],14.7 µM (active)
same,IC50,Nonstructural protein 1,> 100 µM (active)
same,EC50,[5],46.6 µM (active)
same,EC50,[6],> 120 µM (not active)
c1ccc2c(C3=NN=C(NC4CCCCC4)SC3)c[nH]c2c1,CC50,[8],> 40 µM (active)
same,IC50,[2],6.76 µM (not active)
CCN(CC)c1[nH]cnc2c3ccccc3nc1-2,IC50,[9],13.8 µM (active)
CN(C)CCn1c(=S)[nH]c2ccccc2c1=O,IC50,[9],13.2 µM (active)
CCCCNC(=S)NC(=O)c1ccc(Cl)cc1Cl,IC50,[2],4.25 µM (not active)
COc1cc2c(cc1OC)CN(CC(=O)Nc1ccccc1C#N)CC2,IC50,H9c2,34.2 µM (inactive)
CC1CN(C(=O)CCc2cc(C(C)(C)C)c(O)c(C(C)(C)C)c2)CC(C)O1 (configuration not stated),AC50,[10],3.99 µM (active)
same,AC50,[11],2.56 µM (active)
CC(=O)Nc1ccc(NC(=O)Cc2ccc(S(=O)(=O)N3CCCCC3)s2)cc1,IC50,[2],2.64 µM (not active)
CCOC(=O)N1CCN(C(=O)CSc2nc3ccccc3c(=O)n2-c2ccccc2)CC1,IC50,H9c2,19.5 µM (active)
CCOC(=O)c1c(NC(=O)C(C)Sc2cccc[n+]2[O-])sc2c1CCN(Cc1ccccc1)C2 (configuration not stated),EC50,[1],4.81 µM (active)
COc1ccc(C2=CC(c3ccc(C)cc3)n3nnnc3N2)cc1 (configuration not stated),EC50,[1],> 53 µM (inactive)
CCN1CCN(Cc2ccc(NC(=O)c3ccc(C)c(NC(=O)c4cccc(-c5cnnc(O)c5)c4)c3)cc2C(F)(F)F)CC1,AC50,HEK293,1.83 µM (active)
CCC(C(=O)OCC(=O)Nc1ccc(Cl)c(S(=O)(=O)N(C)C)c1)c1ccccc1 (configuration not stated),IC50,[2],13.3 µM (not active)
CCc1ccc([C@@H]2CC=C(C(=O)O)[C@H](c3ccc(C)cc3)N2S(=O)(=O)c2ccc(C)cc2)cc1,IC50,Genome polyprotein,41.2 µM (active)
CCN(CC(=O)Nc1ccc2c(c1)OCCO2)C(=O)c1cccc(S(=O)(=O)N2CCOCC2)c1,AC50,Cytochrome P450 1A2,12.6 µM (inconclusive)
same,AC50,Cytochrome P450 2C9,11.2 µM (inconclusive)
same,AC50,Cytochrome P450 2C19,22.4 µM (inconclusive)
Oc1ccc(Cl)cc1/C=N/c1ccc(Br)cc1,IC50,H9c2,22.3 µM (active)
NC(=O)c1ccccc1/N=C/c1ccccn1,IC50,H9c2,22.4 µM (active)
O=[N+]([O-])c1cccc(-c2ccc(/C=N/Nc3nc(N4CCCCC4)nc(N4CCCCC4)n3)o2)c1,AC50,HEK293,96.7 µM (active)
Cc1ccc(/C=N/NC(=O)CSc2nc3nc(C)cc(C)n3n2)cc1,AC50,Cytochrome P450 1A2,4.47 µM (inconclusive)
same,AC50,Cytochrome P450 2C9,22.4 µM (inconclusive)
CC(=O)Nc1nc(CCl)cs1,IC50,[2],> 50 µM (not active)
COc1ccc(-c2ccc3c(c2)[C@H]2[C@H](CCN2C(=O)NC2CCCC2)[C@H](CO)N3C)cc1,AC50,[12],5.37 µM (active)
O=C(Nc1ccccc1F)N1CC(=O)N2[C@H](CO)[C@@H](c3ccc(-c4ccccc4)cc3)[C@H]2C1,AC50,[12],14.5 µM (active)
